One experiment relates to S. aureus MRSA5. In words: microbe, parasite or virus in culture. The class given is cell-based. Particulars: Staphylococcus aureus.
In experiment [1] the test system is S. pneumoniae 157E. The experiment is described as follows: animal or person. The class given is in vivo, mice. To be noted: for responders at 10 mg/kg / responders at 5 mg/kg: Streptococcus pneumoniae, 157E, in Mus musculus, 48 h, read-out: % survival; for efficacy in words: mouse, in vivo.
The test system of another experiment is E. faecalis 29212. The experiment is described as follows: microbe, parasite or virus in culture. The class given is cell-based. Particulars: Enterococcus faecalis.
In experiment [2] the test system is S. pneumoniae 700905. The experiment is described as follows: microbe, parasite or virus in culture. The class given is cell-based. To be noted: Streptococcus pneumoniae.
A further experiment deals with E. faecium 494. In words: microbe, parasite or virus in culture. The class given is cell-based. Particulars: Enterococcus faecium.
A further experiment concerns S. aureus RN450. In words: microbe, parasite or virus in culture. The class given is cell-based. To be noted: Staphylococcus aureus.
Another experiment deals with S. aureus RN4250. The experiment is described as follows: microbe, parasite or virus in culture. The class given is cell-based. To be noted: Staphylococcus aureus, RN4250.
The test system of experiment [3] is S. pneumoniae 157E. In words: microbe, parasite or virus in culture. The class given is cell-based. Particulars: Streptococcus pneumoniae.
Experiment [4] concerns S. pneumoniae 157E. Further details: species or system mice. To be noted: mouse, in vivo.
Experiment [5] concerns S. pneumoniae 700905. Details: species or system mice. Particulars: mouse, in vivo.

Experimental findings from patent US8440646B1 (priority 2006, dated 2013) are described below.

Values after ≈ are worked out from the molar mass of the structure shown. Where two headings read alike, the source gives them in different places.

As for `CC(CF)N(C)Cc1cc(N(C)C)c2c(c1O)C(=O)C1=C(O)[C@]3(O)C(=O)C(C(N)=O)=C(O)[C@@H](N(C)C)[C@@H]3C[C@@H]1C2` (some centres unmarked) [Compound C], the MIC came out at 1 µg/mL (≈ 1.78 µM) in the experiment on S. aureus MRSA5, 0.5 µg/mL (≈ 0.892 µM) against E. faecalis 29212, 0.25 µg/mL (≈ 0.446 µM) against S. pneumoniae 700905 [2] and 0.25 µg/mL (≈ 0.446 µM) in the experiment with E. faecium 494. The responders at 10 mg/kg with S. pneumoniae 157E [1] (po) amounted to 60%. Also, the responders at 5 mg/kg in the experiment with S. pneumoniae 157E [1] (sc) was found to be 100%. The efficacy in words result with S. pneumoniae 157E [1] is reported as “efficacious”.
For `CO/N=C(\C)c1cc(CNCC(C)(C)C)c(O)c2c1C[C@H]1C[C@H]3[C@H](N(C)C)C(O)=C(C(N)=O)C(=O)[C@@]3(O)C(O)=C1C2=O` [E], the MIC in the experiment on S. aureus MRSA5 was determined as 0.25 µg/mL (≈ 0.428 µM); against E. faecalis 29212, 0.25 µg/mL (≈ 0.428 µM); against S. pneumoniae 700905 [2] it was 0.06 µg/mL (≈ 0.103 µM); in the experiment with E. faecium 494 it was 1 µg/mL (≈ 1.71 µM). Besides, in the experiment on S. pneumoniae 157E [1] (po), the responders at 10 mg/kg came out at 0%. In addition, in the experiment with S. pneumoniae 157E [1] (sc), the responders at 5 mg/kg was found to be 40%.
Turning to `CN(C)[C@@H]1C(O)=C(C(N)=O)C(=O)[C@@]2(O)C(O)=C3C(=O)c4c(O)ccc(CN5CCC(F)CC5)c4C[C@H]3C[C@@H]12` [U], the MIC against S. aureus RN450 and against S. aureus RN4250 was 0.06 µg/mL (≈ 0.113 µM) each time.
On to `CN(C)[C@@H]1C(O)=C(C(N)=O)C(=O)[C@@]2(O)C(O)=C3C(=O)c4c(O)c(CNCCC(F)(F)F)cc(-c5ncccn5)c4C[C@H]3C[C@@H]12` [J], for which the MIC in the experiment with S. aureus MRSA5 turned out to be 0.5 µg/mL (≈ 0.81 µM); in the experiment with E. faecalis 29212, 0.25 µg/mL (≈ 0.405 µM); against S. pneumoniae 700905 [2] it was 0.06 µg/mL (≈ 0.0972 µM); against E. faecium 494, 1 µg/mL (≈ 1.62 µM).
As to `CCN(CCCC(F)(F)F)Cc1cc(N(C)C)c2c(c1O)C(=O)C1=C(O)[C@]3(O)C(=O)C(C(N)=O)=C(O)[C@@H](N(C)C)[C@@H]3C[C@@H]1C2` [N], the MIC is 1 µg/mL (≈ 1.6 µM) against S. aureus MRSA5, 1 µg/mL (≈ 1.6 µM) against E. faecalis 29212, 0.13 µg/mL (≈ 0.208 µM) against S. pneumoniae 700905 [2] and 0.5 µg/mL (≈ 0.8 µM) in the experiment with E. faecium 494.
`CN(CCC(F)(F)F)Cc1cc(N(C)C)c2c(c1O)C(=O)C1=C(O)[C@]3(O)C(=O)C(C(N)=O)=C(O)[C@@H](N(C)C)[C@@H]3C[C@@H]1C2` [L]: the MIC in the experiment with S. aureus MRSA5 was 0.5 µg/mL (≈ 0.838 µM); with E. faecalis 29212 it was 1 µg/mL (≈ 1.68 µM); in the experiment on S. pneumoniae 700905 [2], 0.75 µg/mL (≈ 1.26 µM); in the experiment on E. faecium 494, 1 µg/mL (≈ 1.68 µM).
Take `CCCCN(CCCC)Cc1cc(N(C)C)c2c(c1O)C(=O)C1=C(O)[C@]3(O)C(=O)C(C(N)=O)=C(O)[C@@H](N(C)C)[C@@H]3C[C@@H]1C2` [AH]: the MIC was 1 µg/mL (≈ 1.67 µM) against S. aureus MRSA5, 0.25 µg/mL (≈ 0.418 µM) in the experiment with E. faecalis 29212, 0.06 µg/mL (≈ 0.1 µM) against S. pneumoniae 700905 [2] and 0.25 µg/mL (≈ 0.418 µM) against E. faecium 494.
Consider `COc1ccc(-c2ccc(O)c3c2C[C@H]2C[C@H]4[C@H](N(C)C)C(O)=C(C(N)=O)C(=O)[C@@]4(O)C(O)=C2C3=O)cc1CN(C)C(C)C` [Compound M], for which the MIC in the experiment with S. aureus RN450 and against S. aureus RN4250 was 0.06 µg/mL (≈ 0.0991 µM) throughout.
Consider `CN(C)[C@@H]1C(O)=C(C(N)=O)C(=O)[C@@]2(O)C(O)=C3C(=O)c4c(O)ccc(C#Cc5ccccn5)c4C[C@H]3C[C@@H]12` [Z], for which the MIC in the experiment with S. aureus MRSA5 was found to be 0.5 µg/mL (≈ 0.97 µM); against S. aureus RN450, 0.13 µg/mL (≈ 0.252 µM); in the experiment with S. pneumoniae 157E [3], 0.06 µg/mL (≈ 0.116 µM).
On to `COCCNCc1ccc(-c2ccc(O)c3c2C[C@H]2C[C@H]4[C@H](N(C)C)C(O)=C(C(N)=O)C(=O)[C@@]4(O)C(O)=C2C3=O)cc1` [Y], for which the MIC against S. aureus RN450 and against S. aureus RN4250 was 0.06 µg/mL (≈ 0.104 µM) throughout.
Take `CN(C)c1cc(CNC2CCCCC2)c(O)c2c1C[C@H]1C[C@H]3[C@H](N(C)C)C(O)=C(C(N)=O)C(=O)[C@@]3(O)C(O)=C1C2=O` [B]: the MIC in the experiment on S. aureus MRSA5 worked out at 1 µg/mL (≈ 1.76 µM); in the experiment with E. faecalis 29212, 1 µg/mL (≈ 1.76 µM); against S. pneumoniae 700905 [2], 0.5 µg/mL (≈ 0.879 µM); in the experiment with E. faecium 494, 1 µg/mL (≈ 1.76 µM). In addition, the responders at 5 mg/kg was determined as 40% in the experiment on S. pneumoniae 157E [1] (po) and 100% with S. pneumoniae 157E [1] (sc). The efficacy in words result with S. pneumoniae 157E [1] is “efficacious”.
In the case of `C=CCN(C)Cc1cncc(-c2ccc(O)c3c2C[C@H]2C[C@H]4[C@@H](N(C)C)C(O)=C(C(N)=O)C(=O)[C@@]4(O)C(O)=C2C3=O)c1` [T], the MIC in the experiment on S. aureus RN450 and against S. aureus RN4250 was 0.06 µg/mL (≈ 0.104 µM) throughout.
Turning to `CC(C)NCc1ccc(-c2ccc(O)c3c2C[C@H]2C[C@H]4[C@H](N(C)C)C(O)=C(C(N)=O)C(=O)[C@@]4(O)C(O)=C2C3=O)cc1` [W], the MIC against S. aureus RN450 and against S. aureus RN4250 was 0.06 µg/mL (≈ 0.107 µM) each time.
For `C[C@H]1c2ccc(CN3CCC(C(F)(F)F)CC3)c(O)c2C(=O)C2=C(O)[C@]3(O)C(=O)C(C(N)=O)=C(O)[C@@H](N(C)C)C3[C@@H](O)C21` (some centres unmarked) [AN], the PD50 worked out at 0.54 mg/kg with S. pneumoniae 157E [4] (iv), 2.3 mg/kg in the experiment with S. pneumoniae 157E [4] (po), 1.4 mg/kg with S. pneumoniae 700905 [5] (iv) and 8.4 mg/kg in the experiment with S. pneumoniae 700905 [5] (po).
